We go through one compound from patent US20100261749A1, “METHOD OF PREVENTING OR AMELIORATING PSORIASIS USING PYRROLOQUINOLINE QUINONE COMPOUNDS” (KYOWA HAKKO BIO CO., LTD., priority 2007, published 2010).

In assay [1] the test system is HOS: HR-1 mice. Description: Transepidermal water loss (TEWL) in dry skin mouse models, Tewameter TM210. The settings on record: for TEWL value: specialty feed containing 0.0089% by weight PQQ disodium salt, right buttock, group average. Type of assay: in vivo. Here is the method: (§1) For testing, HOS: HR-1 mice (female, 4 weeks old, purchased from Hoshino Laboratory Animmals, Inc.) were used. Mice were raised under conditions of a room temperature of 22±3° C. and a humidity of 50±25% while being fed with feed and water ad libitum.
(§2) Each test group consisted of 8 mice. The mice of the 1st group were fed with a commercially available powder feed product “CE-2.” The mice of the 2nd group were fed with a specialty feed product (produced by Nosan Corporation). The mice of the 3rd group were fed with a specialty feed product containing 0.0089% by weight of pyrroloquinoline quinone disodium salt (hereinafter referred to as PQQ disodium salt, produced by Mitsubishi Gas Chemical Company, Inc.). In addition, it has been known that HOS: HR-1 mice develop dry skin after being fed with the above specialty feed product (The Journal of international medical research pharmacology, 32, 392-399 (2004)).
Upon the initiation of feeding with each feed product and 2, 4, and 6 weeks later, the transepidermal water loss (TEWL) of the right buttock of each mouse was determined with the use of a Tewameter TM210 (Courage+Khazaka electronic GmbH, Germany) and the average value for each group was calculated.

In assay [2] the test system is HOS: HR-1 mice. Description: Skin moisture content (conductance) in dry skin mouse models, SKICON-200. Type of assay: in vivo. The settings on record: for Conductance (skin moisture content): specialty feed containing 0.0089% by weight PQQ disodium salt, group average. As for the experimental part: as §1, §2
In addition, the skin moisture content (conductance) was determined with SKICON-200 (produced by IBS) and the average value for each group was calculated. Table 2 lists results of determination of the skin moisture content from week 0 to week 6 after the initiation of the test.

The subject of assay [3] is HOS: HR-1 mice. Description: Epidermis thickness, paraffin sections of mouse dorsal skin. Type of assay: in vivo. As for the experimental part: as §1, §2
Paraffin sections of mouse dorsal skin fixed with neutral buffer containing 10 vol % formalin were prepared for the determination of epidermis thickness. Table 3 lists results of the determination of epidermis thickness 6 weeks after the initiation of the test.

Another assay has as its system mast cells in dermis. Description: Number of mast cells in dermis, May-Grunwald-Giemsa staining. The assay is classed as in vivo, mice. As for the experimental part: as §1, §2
The number of mast cells in dermis was determined with the use of May-Grunwald-Giemsa staining specimens. The counting area was the dermis located above the cutaneous muscle. The number of cells in the dermis (per 1 mm of the baseline) was obtained by dividing the determined cell number by the length of a straight line extending between both ends of the cutaneous muscle (baseline). […]

In assay [4] the test system is CD3-positive T lymphocytes in the epidermis. Description: Number of CD3-positive T lymphocytes in epidermis, anti-CD3 immunostaining. Type of assay: in vivo, mice. Here is the method:
as §1, §2
In addition, counting of the number of CD3-positive T lymphocytes in the epidermis was carried out with the use of anti-CD3 immunostained specimens. The counting area was the dermis located above the cutaneous muscle. The number of cells in the epidermis (per mm of the baseline) was obtained by dividing the determined cell number by the length of a straight line extending between both ends of the cutaneous muscle (baseline). […]

[5] abbreviates: 3rd group versus 2nd group (specialty feed without PQQ disodium salt).
[6] abbreviates: feeding period 0 weeks (initiation).
Where [7] appears, read: 3rd group versus 2nd group, 6 weeks.
Where [8] appears, read: 6 weeks after initiation, specialty feed containing 0.0089% by weight PQQ disodium salt, *p < 0.05 for the 2nd group.

As to `O=C(O)c1cc(C(=O)O)c2c(n1)C(=O)C(=O)c1cc(C(=O)O)[nH]c1-2.[Na].[Na]` [PQQ disodium salt, pyrroloquinoline quinone disodium salt], the “Transepidermal water loss value (TEWL value), result in words” value with HOS: HR-1 mice [1] (setting [5]) was “suppressed to a level lower than that in the 2nd group”. In addition, the TEWL value in the assay on HOS: HR-1 mice [1] (setting [6]) was 4.94 g/m²/h; with HOS: HR-1 mice [1] (feeding period 2 weeks) it was 17.9 g/m²/h; in the assay on HOS: HR-1 mice [1] (feeding period 4 weeks), 27 g/m²/h; in the assay with HOS: HR-1 mice [1] (feeding period 6 weeks) it was 29.9 g/m²/h. Moreover, the “Skin moisture content (conductance), result in words” value in the assay with HOS: HR-1 mice [2] (setting [5]) is on record as “increased to a greater extent than that in the 2nd group”. Also, the “Conductance (skin moisture content)” value amounted to 414.55 μS in the assay with HOS: HR-1 mice [2] (setting [6]), 67.83 μS with HOS: HR-1 mice [2] (feeding period 2 weeks), 41.95 μS in the assay on HOS: HR-1 mice [2] (feeding period 4 weeks) and 39.03 μS in the assay with HOS: HR-1 mice [2] (feeding period 6 weeks). For the same compound, the “Epidermis thickening, result in words” value in the assay with HOS: HR-1 mice [3] (setting [7]) is reported as “epidermis thickening was suppressed”. The Epidermis thickness in the assay on HOS: HR-1 mice [3] (6 weeks after initiation, dorsal skin, specialty feed containing 0.0089% by weight PQQ disodium salt) was found to be 64.03 μm. In the assay on mast cells in dermis (setting [7]), the “Number of mast cells in the dermis, result in words” value is “the number of mast cells in the dermis was suppressed”. Also, the “Number of mast cells in dermis per mm basal line” value with mast cells in dermis (setting [8]) is 54.62* cells/mm basal line. The “Number of CD3-positive cells in the epidermis, result in words” value in assay [4] (setting [7]) was “the number of CD3-positive cells in the epidermis was suppressed”. In addition, in assay [4] (setting [8]), the “Number of CD3-positive cells in epidermis per mm basal line” value was 18.95* cells/mm basal line.
